target: PAR4 (Homo sapiens (Human), UniProt Q96RI0); assay: FLIPR assay in PAR4-expressing HEK293 cells (PAR4 antagonist activity, calcium mobilization); type: cell-based; conditions: FLIPR assay as described in Example A
Source text: The FLIPR assay is an exemplary in vitro assay for measuring the activity of the PAR4 antagonists of the present invention. In this assay, intracellular calcium mobilization is induced in PAR4 expressing cells by a PAR4 agonist and calcium mobilization is monitored. See, e.g., Example A.
HEK293 cells stably expressing PAR4 were generated by a standard method of transfection of human […] cDNA expression vector or by RAGE technology from Athersys Inc. (Cleveland, Ohio) and selected based on PAR4 protein expression of mRNA expression. […] These cells express endogenous PAR1 and can elicit calcium signal upon stimulation with PAR1 agonist peptide.
Counter screens for agonist activity and PAR1 antagonist activity were also performed. Briefly, HEK293 EBNA PAR4 clone 20664.1J cells were plated 24 hrs. prior to experiment in 384 well, Poly-D-Lysine coated, black, clear bottom plates (Greiner Bio-One, Monroe, N.C.). Cells were plated at 20,000 cells/well in 20 μl growth medium and incubated at 37° C. with 5% CO2 overnight. At time of assay, media was replaced with 40 μl 1× Hank's Buffered Saline Solution (HBSS) (with 10 mM HEPES) and 20 μl test compound also diluted in 1×HBSS buffer was added at various concentrations and 0.67% DMSO final concentration on the FDSS for agonist measurement. The cells were then incubated for 30 minutes at room temperature followed by addition of 20 μl of agonist peptide for antagonist measurement on the FDSS.
As indicated above, the FLIPR assay, an in vitro assay, measures the PAR4 antagonist activity of compounds tested as described in Example A.

PAR4, sequence (Q96RI0 18-385): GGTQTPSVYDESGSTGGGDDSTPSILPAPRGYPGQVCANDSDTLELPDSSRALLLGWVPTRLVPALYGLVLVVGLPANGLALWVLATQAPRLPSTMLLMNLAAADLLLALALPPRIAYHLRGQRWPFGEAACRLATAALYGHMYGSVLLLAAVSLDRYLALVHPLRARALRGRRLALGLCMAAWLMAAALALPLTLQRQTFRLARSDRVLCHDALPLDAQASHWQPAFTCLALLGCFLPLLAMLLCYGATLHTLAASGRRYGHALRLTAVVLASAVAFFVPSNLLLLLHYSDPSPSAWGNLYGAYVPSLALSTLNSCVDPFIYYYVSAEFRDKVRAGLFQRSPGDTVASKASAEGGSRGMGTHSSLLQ

Structure (SMILES) | IC50
COc1cc2oc(-c3cn4nc(C(C)F)sc4n3)cc2cc1Cl (stereo in doubt) [270A] | 114 nM
COc1cc2oc(-c3cn4nc([C@H](C)F)sc4n3)cc2cc1Cl [270-1] | 9.53 nM
COc1cc2oc(-c3cn4nc([C@H](C)F)sc4n3)cc2cc1Cl [270B] | 3.37 nM
CSc1nn2cc(-c3cc4ccccc4o3)nc2s1 [Example 1, 6-(Benzofuran-2-yl)-2-(methylthio)imidazo[2,1-b][1,3,4]thiadiazole] | 14 nM
CSc1nn2cc(-c3nc4ccccc4s3)nc2s1 [Example 4, 2-(2-(Methylthio)imidazo[2,1-b][1,3,4]thiadiazol-6-yl)benzo[d]thiazole] | 12.9 nM
COc1cccc2sc(-c3cn4nc(SC)sc4n3)nc12 [Example 6, 4-Methoxy-2-(2-(methylthio)imidazo[2,1-b][1,3,4]thiadiazol-6-yl)benzo[d]thiazole] | 618 nM
COc1nn2cc(-c3cc4cccc(OC)c4o3)nc2s1 [Example 9, 2-Methoxy-6-(7-methoxybenzofuran-2-yl)imidazo[2,1-b][1,3,4]thiadiazole] | 224 nM
CCOc1cccc2cc(-c3cn4nc(CC)sc4n3)oc12 [Example 13, 6-(7-Ethoxybenzofuran-2-yl)-2-ethylimidazo[2,1-b][1,3,4]thiadiazole] | 147 nM
COc1ccc2cc(-c3cn4nc(SC)sc4n3)oc2c1 [Example 20] | 3.53 nM
CSc1nn2cc(-c3cc4ccc(C)cc4o3)nc2s1 [Example 21] | 22.1 nM
CSc1nn2cc(-c3cc4cccc(Cl)c4o3)nc2s1 [Example 23] | 144 nM
COc1ccc2oc(-c3cn4nc(SC)sc4n3)c(C)c2c1 [Example 24] | 696 nM
COc1ccc2c(C)c(-c3cn4nc(SC)sc4n3)oc2c1OC [Example 25] | 2.81 nM
COc1nn2cc(-c3cc4cccc(OC)c4o3)nc2s1 [Example 35] | 7.65 nM
CCc1nn2cc(-c3cc4cccc(OC)c4o3)nc2s1 [Example 37] | 8.51 nM
CCc1nn2cc(-c3nc4ccc(Cl)cc4o3)nc2s1 [Example 40] | 122 nM
Cc1nn2cc(-c3cc4ccccc4o3)nc2s1 [Example 41] | 18.6 nM
CCc1nn2cc(-c3nc4c(C)cccc4o3)nc2s1 [Example 42] | 462 nM
CCc1nn2cc(-c3nc4cc(Cl)ccc4o3)nc2s1 [Example 45] | 135 nM
CCc1nn2cc(-c3nc4cc(C)c(C)cc4o3)nc2s1 [Example 46] | 565 nM
CCc1nn2cc(-c3cc4ccccc4o3)nc2s1 [Example 47] | 68 nM
CCc1nn2cc(-c3nc4cc(F)ccc4o3)nc2s1 [Example 49] | 361 nM

More lines, now with the values ahead:

IC50 | Structure (SMILES)
394 nM | CCCOc1ccc2nc(-c3cn4nc(CC)sc4n3)oc2c1 [Example 51]
149 nM | CCc1nn2cc(-c3cc4cccc(OCC#N)c4o3)nc2s1 [Example 53]
601 nM | CCCOc1cccc2cc(-c3cn4nc(CC)sc4n3)oc12 [Example 56]
565 nM | CCc1nn2cc(-c3nc4cc(C)cc(C)c4o3)nc2s1 [Example 58]
288 nM | CCc1nn2cc(-c3cc4cccc(O)c4o3)nc2s1 [Example 59]
623 nM | CCOC(=O)CCCOc1cccc2cc(-c3cn4nc(CC)sc4n3)oc12 [Example 60]
1650 nM | CCc1nn2cc(-c3cc4cc(OC)ccc4o3)nc2s1 [Example 61]
587 nM | CCOC(=O)COc1cccc2cc(-c3cn4nc(CC)sc4n3)oc12 [Example 62]
201 nM | c1ccc2oc(-c3cn4nc(C5CC5)sc4n3)cc2c1 [Example 63]
1590 nM | CCCCOc1cccc2cc(-c3cn4nc(CC)sc4n3)oc12 [Example 64]
1470 nM | CCOC(=O)CCCCCOc1cccc2cc(-c3cn4nc(CC)sc4n3)oc12 [Example 65]
2620 nM | CCc1nn2cc(-c3cc4cccc(OCCCC#N)c4o3)nc2s1 [Example 66]
103 nM | CCc1nn2cc(-c3nc4ccc(OCc5ccccc5)cc4o3)nc2s1 [Example 67]
407 nM | CNc1nn2cc(-c3cc4ccccc4o3)nc2s1 [Example 69]
